Where “and” joins values, the source holds several entries; their conditions need not be identical. Identical values can stand only once.
What was measured:
Type in all cases: biochemical
[1] = target: T1, HPA (Homo sapiens, UniProt P04746); test: Km determination (Lineweaver-Burk plot, products measured by HPLC); conditions: 50 mM BES/NaOH buffer pH 7.6, 37°C, 5 min
T1 sequence (P04746 16-511): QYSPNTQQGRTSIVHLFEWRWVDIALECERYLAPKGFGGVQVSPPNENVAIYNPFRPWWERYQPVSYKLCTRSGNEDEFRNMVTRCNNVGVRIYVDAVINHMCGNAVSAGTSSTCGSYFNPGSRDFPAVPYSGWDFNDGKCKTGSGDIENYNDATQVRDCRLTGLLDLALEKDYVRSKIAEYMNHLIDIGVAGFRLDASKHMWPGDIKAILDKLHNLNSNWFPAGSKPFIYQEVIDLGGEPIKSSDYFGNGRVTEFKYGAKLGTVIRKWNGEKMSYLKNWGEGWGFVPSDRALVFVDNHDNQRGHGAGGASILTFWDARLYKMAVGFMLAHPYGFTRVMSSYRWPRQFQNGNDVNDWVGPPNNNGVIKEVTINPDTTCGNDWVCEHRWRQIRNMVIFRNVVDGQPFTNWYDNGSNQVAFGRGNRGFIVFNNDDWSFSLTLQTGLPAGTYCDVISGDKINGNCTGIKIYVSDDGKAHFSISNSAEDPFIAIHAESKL
Procedure: The amounts of the products were measured with HPLC.

[2] = target: T2, HSA (Homo sapiens, UniProt P0DUB6); test: Binding mode (distribution of hydrolysis products) by HPLC; conditions: for Hydrolysis product G2P: share of product G2P; for Hydrolysis product G3P: share of product G3P; for Hydrolysis product G4P: share of product G4P; for Hydrolysis product GP: share of product GP
T2 sequence (P0DUB6 16-511): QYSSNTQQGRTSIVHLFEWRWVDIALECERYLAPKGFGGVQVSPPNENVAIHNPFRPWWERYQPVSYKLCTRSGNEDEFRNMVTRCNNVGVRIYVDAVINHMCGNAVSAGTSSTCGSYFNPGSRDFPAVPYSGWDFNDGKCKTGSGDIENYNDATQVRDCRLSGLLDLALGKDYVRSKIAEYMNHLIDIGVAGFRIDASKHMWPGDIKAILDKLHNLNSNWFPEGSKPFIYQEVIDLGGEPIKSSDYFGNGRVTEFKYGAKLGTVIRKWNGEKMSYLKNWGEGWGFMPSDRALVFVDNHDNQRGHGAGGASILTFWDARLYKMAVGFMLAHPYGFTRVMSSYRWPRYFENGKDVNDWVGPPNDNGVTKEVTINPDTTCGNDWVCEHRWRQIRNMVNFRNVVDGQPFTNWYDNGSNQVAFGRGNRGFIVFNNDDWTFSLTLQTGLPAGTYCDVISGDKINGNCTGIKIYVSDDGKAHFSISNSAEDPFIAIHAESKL
Procedure: (§1) The binding mode of each substrate were measured with high-performance liquid chromatography (HPLC) as described above.

[3] = target: T1, HPA; test: as above; conditions: for Hydrolysis product G2P: share of product G2P; for Hydrolysis product G3P: share of product G3P; for Hydrolysis product G4P: share of product G4P; for Hydrolysis product GP: share of product GP
Procedure: as §1

[4] = target: T3, human salivary α-amylase (HSA) (Homo sapiens, UniProt P0DUB6); test: Hydrolysis rate of substrates by α-amylase (relative to G5P); conditions: substrate 1.0 mM, pH 7, value of G5P taken as 1
T3 sequence (P0DUB6 16-511): T2 sequence (P0DUB6 16-511)
Procedure: (§2) The above-mentioned advantages can be shown by using the following oligosaccharides: [drawing 6] n = 2: BG4P n = 3: BG5P (the present invention) n = 4: BG6P n = 5: BG7P [drawing 7] n = 2: G4P n = 3: G5P (standard) n = 4: G6P n = 5: G7P [drawing 8] n = 2: BDG4P n = 3: BDG5P n = 4: BDG6P n = 5: BDG7P The hydrolysis rate is measured by using human pancreatic α-amylase (HPA) or human salivary α-amylase (HSA) for each substrate (1.0 mM) at pH 7, and evaluating by means of relative values by taking the value of G5P as 1.

[5] = target: T4, human pancreatic α-amylase (HPA) (Homo sapiens, UniProt P04746); test: as above; conditions: substrate 1.0 mM, pH 7, value of G5P taken as 1
T4 sequence (P04746 16-511): T1 sequence (P04746 16-511)
Procedure: as §2

[6] = system: glucoamylase; test: Action of glucoamylase on the modified oligosaccharide

Row | SMILES | Km [1] | Hydrolysis product G2P [2] | Hydrolysis product G3P [2] | Hydrolysis product G4P [2] | Hydrolysis product GP [2] | Hydrolysis product G2P [3] | Hydrolysis product G3P [3] | Hydrolysis product G4P [3] | Hydrolysis product GP [3] | hydrolysis rate (relative value) [4] | hydrolysis rate (relative value) [5] | action of glucoamylase on the substrate [6]
1 | O=[N+]([O-])c1ccc(O[C@H]2O[C@H](CO)[C@@H](O[C@H]3O[C@H](CO)[C@@H](O[C@H]4O[C@H](CO)[C@@H](O[C@H]5O[C@H](CO)[C@@H](O[C@H]6O[C@H](COCc7ccccc7)[C@@H](O)[C@H](O)[C@H]6O)[C@H](O)[C@H]5O)[C@H](O)[C@H]4O)[C@H](O)[C@H]3O)[C@H](O)[C@H]2O)cc1 [BG5P, p-nitrophenyl O-(6-O-benzyl)-α-D-glycopyranosyl-(1→4)-O-α-D-glucopyranosyl-(1→4)-O-α-D-glucopyranosyl-(1→4)-O-α-D-glucopyranosyl-(1→4)-α-D-glucopyranoside] | 110 µM and 106 µM | 98% | 0% | 0% | 2% | 95% | 0% | 0% | 5% | 1.4 | 1.4 | not acted by glucoamylase
2 | O=[N+]([O-])c1ccc(O[C@H]2O[C@H](CO)[C@@H](O[C@H]3O[C@H](CO)[C@@H](O[C@H]4O[C@H](CO)[C@@H](O[C@H]5O[C@H](CO)[C@@H](O[C@H]6O[C@H](CO)[C@@H](O)[C@H](O)[C@H]6O)[C@H](O)[C@H]5O)[C@H](O)[C@H]4O)[C@H](O)[C@H]3O)[C@H](O)[C@H]2O)cc1 [Substrate G5P] | 360 µM and 358 µM | 83% | 11% | 0% | 6% | 73% | 12% | 0% | 15% | 1.0 | 1.0 | –
3 | O=[N+]([O-])c1ccc(O[C@H]2O[C@H](CO)[C@@H](O[C@H]3O[C@H](CO)[C@@H](O[C@H]4O[C@H](CO)[C@@H](O[C@H]5O[C@H](CO)[C@@H](O[C@H]6O[C@H](CBr)[C@@H](O)[C@H](O)[C@H]6O)[C@H](O)[C@H]5O)[C@H](O)[C@H]4O)[C@H](O)[C@H]3O)[C@H](O)[C@H]2O)cc1 [BrG5P] | – | – | – | – | – | – | – | – | – | – | – | not acted by glucoamylase
